In patent US11395823B2, “Topical administration of MEK inhibiting agents for the treatment of skin disorders” (Duke University, priority 2018, dated 2022):

Experiments:
K5-CreER.Braf^Ca/+ mice = assay: Topical treatment of Braf mutation-induced skin tumors and inflammation in K5-CreER.Braf^Ca/+ mice; assay type: in vivo
Method: Experiments were conducted that tested whether topical dose trametinib can effectively treat the skin lesions induced by Braf mutation. To do this, Braf mutation was induced in the rear back skins of 2-month old K5-CreER.Braf^Ca/+ mice with 4-OHT, and 7 days later, applied five consecutive daily topical doses of trametinib (see, FIG. 3a).
Braf mutant animals: K14-Cre and K5-CreER mice were provided by Duke University. These animals were crossed with Tyr-CreER.Braf^Ca+/−.PTEN−/− mice which were provided by Duke University. Genotyping were performed via PCR. For topical induction, the back skins of adult animals were shaved and treated with two consecutive daily doses of 4-OHT (Sigma, 5 mg/ml in ethanol).
Mouse tissues: For H&E staining of mouse skins, 5 μm frozen tissue sections were fixed with ethanol and stained with Hematoxylin and Eosin. For immunostaining, 5 μm frozen tissue sections were fixed with cold methanol, incubated with and a primary antibody against CD8 (Tonbo Biosciences), and detected with a secondary antibody conjugated to Dylight 488 (Invitrogen) followed by counterstaining with Hoechst 33342. The images were obtained with the Olympus imaging system.

SKH-1Elite mice = assay: UV-induced skin carcinogenesis; assay type: in vivo
Excerpt: UV is a primary cause of melanoma and non-melanoma skin cancer. To assess whether topical trametinib inhibits UV-induced skin carcinogenesis, SKH animals (n=10, 5 male and 5 female) were irradiated biweekly with 160 mJ broad band UVB along with pretreatment of solvent or trametinib.
UV induction of skin carcinogenesis: Six weeks old hairless SKH-1Elite mice were obtained from (Jackson Laboratory). Animals were subject to UVB irradiation (160-180 mJ dose) 3 times per week for 20 weeks using rayminder model 2 UVB midband lamp M2D24H and UV513AB digital UVA/UVB (280-400 nm) meter of General Tools. Mouse back skins were pretreated before each UV-radiation with 100 μl of solvent (5% DMSO in 95% acetone:olive oil (3:1 mixture) or 10 to 30 μM trametinib (n=5/group/sex).

[1] = system: recipient mouse T-cell alloreactivity; conditions: oral administration; cited from earlier work
C57/BL6 mice [2] = assay: Imiquimod (IMQ)-induced psoriasis model
C57/BL6 mice [3] = assay: DNFB-induced atopic dermatitis model (ear swelling)

animal weight loss (C57/BL6 mice [2]; 60 μM topical): did not induce animal weight loss | gross morphological changes of internal organs, including liver, kidney and spleen and lymph nodes (C57/BL6 mice [2]; 60 μM topical): did not induce | thickness of the control (solvent-treated left) ears (C57/BL6 mice [3]; daily topical 0.2-20 μM): not significantly affected | histological appearance of kidney, spleen, and liver tissues (C57/BL6 mice [3]; topical dosage): normal histological appearance
Compound: CC(=O)Nc1cccc(-n2c(=O)n(C3CC3)c(=O)c3c(Nc4ccc(I)cc4F)n(C)c(=O)c(C)c32)c1 [trametinib, N-(3-{3-Cyclopropyl-5-[(2-fluoro-4-iodophenyl)amino]-6,8-dimethyl-2,4,7-trioxo-3,4,6,7-tetrahydropyrido[4,3-d]pyrimidin-1 (2H)-yl}phenyl)acetamide]
skin tumors (clinical images) (K5-CreER.Braf^Ca/+ mice; five consecutive daily topical doses starting 7 days after 4-OHT, by day 11): completely regressed | treating oral lesions, topical versus systemic delivery of the same amount (K5-CreER.Braf^Ca/+ mice; topical vs systemic): more effective than systemic delivery | CD8+ immune cells in the dermis (immunostaining) (K5-CreER.Braf^Ca/+ mice; topical, five daily doses): reduced CD8+ immune cells in the dermis | epidermal neoplasia (histological analysis, H&E) (K5-CreER.Braf^Ca/+ mice; topical, five daily doses): regressed epidermal neoplasia | number of tumor nodules (SKH-1Elite mice; 10 μM topical pretreatment before each UVB irradiation): significantly lower number of tumor nodules | number of tumor nodules (SKH-1Elite mice; 30 μM topical pretreatment before each UVB irradiation): significantly lower number of tumor nodules | recipient mouse T-cell alloreactivity [1]: suppresses recipient mouse T-cell alloreactivity without affecting graft-vs-tumor effects | PASI score (C57/BL6 mice [2]; 60 μM topical, day 3): reduced the PASI score | PASI score difference to control (C57/BL6 mice [2]; 60 μM topical, day 5): differences were minimized | IMQ-induced epidermal thickening (C57/BL6 mice [2]; topical): reduces IMQ-induced epidermal thickening | clinical appearance of DNFB challenged right ear lobes (C57/BL6 mice [3]; 0.2 μM topical): appeared thickened and inflamed | clinical appearance of DNFB challenged right ear lobes (C57/BL6 mice [3]; 20 μM topical): appeared smooth and normal | DNFB-induced ear swelling (C57/BL6 mice [3]; daily topical 0.2, 2, 20 μM, right ear): reduced by trametinib at a dose response manner | thickened epidermis and dermal cellular infiltration of DNFB-treated skins (histology) (C57/BL6 mice [3]; topical): normalized
